Data set [1] in a line: Solubility of ziprasidone salts in water. The conditions noted are these: weight of ziprasidone calculated as the free base.
Data set [2] in a line: Equilibrium solubility of ziprasidone salts in 40% (w/v) aqueous HPBCD, HPLC. It is filed as physicochemical. Particulars: 40% (w/v) HPBCD in water, stirred four days at ambient temperature; calculated as free base. The source says: Many different experimental protocols can be envisioned and implemented. […] HPBCD was purchased commercially from Wacker Chemie.
A short description of data set [3]: Equilibrium solubility of ziprasidone salts in 40% (w/v) aqueous SBECD, HPLC. Particulars: in 40% SBECD; from Table 1.
Description: The following protocol illustrates the protocol employed for the instant invention using 40% aqueous cyclodextrin. The same protocol was employed for other aqueous cyclodextrin concentrations such as those used to generate FIG. 1.
A 40% (w/v) solution of cyclodextrin (SBECD or HPBCD) in water was prepared by adding 200 g of cyclodextrin to a 500 ml beaker containing approximately 250 ml of deionized water and a magnetic stir bar. The contents were stirred until dissolution of the cyclodextrin in the water was complete, usually a time of about one hour being sufficient. The solution was then transferred to a 500 ml volumetric flask and deionized water was added to the mark. 5 ml of the volumetric solution was pipetted into a 10 ml glass vial with a screw cap. […] The vial contents were stirred for four days at ambient temperature to allow a sufficient time for equilibrium to be established. […] The contents were filtered into a clean screw cap vial through a Millex-GS 0.2 μm filter and the drug concentration determined by an HPLC method.
Detection can be by UV absorption at a wavelength of 229 nm. Quantification can be effected facilely by comparison of HPLC peak height (or area) with the peak height (or area) taken from a standard plot of concentration vs. peak height (or area) for standards of known concentration. […]

Structures can show the parent of a compound that is named as a salt.

Turning to `O=C1Cc2cc(CCN3CCN(c4nsc5ccccc45)CC3)c(Cl)cc2N1` [tartrate, Ziprasidone Tartrate], in data set [1], the Solubility in water is listed as 180 μgA/ml. The “Solubility in 40% HPBCD” value in data set [2] was 12.4 μgA/ml. Turning to `O=C1Cc2cc(CCN3CCN(c4nsc5ccccc45)CC3)c(Cl)cc2N1` [aspartate, ziprasidone], in data set [2], the “Solubility in 40% HPBCD” value is listed as 1.3 μgA/ml. `O=C1Cc2cc(CCN3CCN(c4nsc5ccccc45)CC3)c(Cl)cc2N1` [esylate, Ziprasidone Esylate]: the “Solubility in 40% HPBCD” value in data set [2] was 13.7 μgA/ml. As for `O=C1Cc2cc(CCN3CCN(c4nsc5ccccc45)CC3)c(Cl)cc2N1` [hydrochloride, ziprasidone], the Solubility in water in data set [1] was 80 μgA/ml. For the same compound, the “Solubility in 40% HPBCD” value in data set [2] is 2.4 μgA/ml. Consider `O=C1Cc2cc(CCN3CCN(c4nsc5ccccc45)CC3)c(Cl)cc2N1` [mesylate, Ziprasidone Mesylate], for which, in data set [1], the Solubility in water was 1000 μgA/ml. Further, the “Solubility in 40% HPBCD” value in data set [2] is given as 17.3 μgA/ml. Moreover, in data set [3], the “Comparison of solubility among the salt candidates and cyclodextrin solutions tested” value was “highest solubility”.

With `O=C1Cc2cc(CCN3CCN(c4nsc5ccccc45)CC3)c(Cl)cc2N1` [free base, ziprasidone, reference compound], in data set [1], the Solubility in water is 0.3 μgA/ml.

Regarding `O=C1Cc2cc(CCN3CCN(c4nsc5ccccc45)CC3)c(Cl)cc2N1` [besylate, ziprasidone], in data set [1], the Solubility in water is listed as 80 μgA/ml.

The record behind these values is US6399777B2, “Inclusion complexes of aryl-heterocyclic salts” (Pfizer Inc., priority 1996, dated 2002).
